Experimental data published in patent US20090253633A1, “Novel Combinations of DNAK Inhibitors With Known Antibacterial Agents” (priority 2005, published 2009).
Bridges are numbered along the chain shown (N, C = ends). Roman numbers before positions name the chains, in order. [ ]: non-standard residue; d: D form. NMeR = CN[C@@H](CCCNC(=N)N)C(=O)O; Api = NC1(C(=O)O)CCNCC1; Dab = NCC[C@H](N)C(=O)O

System: E. coli isolate CHP-04-002EC
Assay: MIC against the E. coli test isolate
Assay type: cell-based
Details: stated as 1×MIC
Protocol: Growth inhibition assays were performed using the Gram negative E. coli isolate CHP-04-002EC obtained from Laboratory Specialists, Inc. (Westlake, Ohio). […] Untreated bacterial culture served as growth control. At 4, 8, 12 and 24 hrs post-application, the cultures were serially diluted, plated and allowed to grow overnight. Colony forming units (CFU) were determined by counting the number of newly grown colonies and multiplying by the dilution factor.

For “I: H-[Api]DKGSYLPRPTPPRPIYN[NMeR]N[Dab]-NH2 / II: H-[Api]DKGSYLPRPTPPRPIYN[NMeR]N (amide I:21-II:C) [CHP-105]”, the MIC was 64 µg/mL.
